Assay results reported in the NIST ThermoML archive (doi:10.1016/j.jct.2017.10.014).

Conditions: Liquid; for mass density: 100 kPa, Vibrating tube method; for viscosity: 101.33 kPa, Concentric cylinders viscometry

CC(C)(CO)[C@@H](O)C(=O)NCCCO [d-Panthenol]
Conditions | mass density [kg/m3] | viscosity [mPa·s]
293.15 K | 1165.18 | 527287
298.15 K | 1161.68 | 261544
303.15 K | 1158.27 | 125673
308.15 K | 1154.96 | 68487
313.15 K | 1151.46 | 37252
